# Test results published in article PMC10666452, “Direct inhibition of dioxygenases TET1 by the rheumatoid arthritis drug auranofin selectively induces cancer cell death in T-ALL” (Journal of Hematology & Oncology, 2023).
# Biological target: T1, TET1 (TET1-CD) (Homo sapiens, UniProt Q8NFU7)
# T1 construct: TET1 protein
# T1 sequence (Q8NFU7 1418-2136 limits assumed): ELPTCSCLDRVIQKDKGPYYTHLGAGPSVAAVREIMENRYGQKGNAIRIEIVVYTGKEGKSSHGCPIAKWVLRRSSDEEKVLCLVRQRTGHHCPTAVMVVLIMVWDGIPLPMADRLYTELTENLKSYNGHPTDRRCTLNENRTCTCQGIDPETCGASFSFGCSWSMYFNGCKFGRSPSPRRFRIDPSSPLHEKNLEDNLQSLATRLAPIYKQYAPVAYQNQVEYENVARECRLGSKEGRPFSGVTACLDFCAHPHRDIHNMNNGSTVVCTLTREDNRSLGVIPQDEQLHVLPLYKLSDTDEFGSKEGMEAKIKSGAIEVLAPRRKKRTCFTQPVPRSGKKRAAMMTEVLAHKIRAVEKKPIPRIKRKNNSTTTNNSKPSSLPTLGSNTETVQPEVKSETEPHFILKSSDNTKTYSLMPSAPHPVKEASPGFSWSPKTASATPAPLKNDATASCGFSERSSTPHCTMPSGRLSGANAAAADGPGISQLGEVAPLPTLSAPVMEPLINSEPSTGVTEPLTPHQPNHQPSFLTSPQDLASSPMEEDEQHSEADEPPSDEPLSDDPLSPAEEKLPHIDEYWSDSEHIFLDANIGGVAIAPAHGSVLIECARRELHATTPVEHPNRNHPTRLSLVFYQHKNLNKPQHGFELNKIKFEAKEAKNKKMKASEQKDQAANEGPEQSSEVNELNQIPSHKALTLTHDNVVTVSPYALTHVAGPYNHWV
# Test: SPR competition against auranofin
# Format: binding
# Conditions: competes with auranofin, 2-OG analogue
compound,measurement,value
O=C(O)CNC(=O)C(=O)O [NOG],SPR competition against auranofin,both NOG and Fe (II) compete with auranofin for binding to TET1-CD
